Assay results taken from PubChem BioAssay AID256 (DTP/NCI, 2004).
Toxic doses and inconclusive results are not listed.

Test system: CD2F1 mice, L1210 leukemia ip, survival T/C
Test: NCI In Vivo Anticancer Drug Screen. Data for tumor model L1210 Leukemia (intraperitoneal) in CD2F1 (CDF1) mice
Conditions: higher = longer survival
Procedure, shortened: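 Mice carrying a transplanted tumor received test compound or vehicle alone. The value is the measurement in the treated group divided by that in the vehicle-treated control group.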

[1] = endpoint: mean survival time, dose: 100.0 mg/kg/injection, schedule: Q01DX001 (ip), vehicle: saline
[2] = endpoint: mean survival time, dose: 200.0 mg/kg/injection, schedule: Q01DX001 (ip), vehicle: saline
[3] = endpoint: mean survival time, dose: 400.0 mg/kg/injection, schedule: Q01DX001 (ip), vehicle: saline
[4] = endpoint: mean survival time, dose: 75.0 mg/kg/injection, schedule: Q01DX001 (ip), vehicle: other
[5] = endpoint: mean survival time, dose: 100.0 mg/kg/injection, schedule: Q01DX009 (ip), vehicle: saline with Tween-80
[6] = endpoint: mean survival time, dose: 200.0 mg/kg/injection, schedule: Q01DX009 (ip), vehicle: saline with Tween-80
[7] = endpoint: mean survival time, dose: 100.0 mg/kg/injection, schedule: Q04DX003 (ip), vehicle: saline with Tween-80
[8] = endpoint: mean survival time, dose: 200.0 mg/kg/injection, schedule: Q04DX003 (ip), vehicle: saline with Tween-80
[9] = endpoint: mean survival time, dose: 50.0 mg/kg/injection, schedule: Q01DX009 (ip), vehicle: saline with Tween-80

With `Nc1ncnc2c1ncn2C1OC(CO)C(NC(=O)C(N)Cc2ccccc2)C1O` (stereo unspecified) the T/C [1] was 94 % of control, the T/C [2] was 92 % of control and the T/C [3] was 91 % of control.
`Cc1cccc(C(=O)C(=O)c2cccc(C)c2C)c1C` was tested, and the T/C [4] was 93 % of control, the T/C (endpoint: mean survival time, dose: 150.0 mg/kg/injection, schedule: Q01DX001 (ip), vehicle: other) was 93 % of control and the T/C (endpoint: mean survival time, dose: 300.0 mg/kg/injection, schedule: Q01DX001 (ip), vehicle: other) was 100 % of control.
`O=C(OCC1OC([Se])C(OC(=O)c2ccccc2)C(OC(=O)c2ccccc2)C1OC(=O)c1ccccc1)c1ccccc1.[CH3][Sb][CH3]` (stereo unspecified) was tested, and the T/C (endpoint: mean survival time, dose: 50.0 mg/kg/injection, schedule: Q01DX009 (ip), vehicle: Klucel (hydroxypropylcellulose) (HPC)) was 100 % of control, the T/C (endpoint: mean survival time, dose: 100.0 mg/kg/injection, schedule: Q01DX009 (ip), vehicle: Klucel (hydroxypropylcellulose) (HPC)) was 103 % of control and the T/C (endpoint: mean survival time, dose: 200.0 mg/kg/injection, schedule: Q01DX009 (ip), vehicle: Klucel (hydroxypropylcellulose) (HPC)) was 100 % of control.
In the case of `CC(=O)OCC(=O)[C@@]1(O)CC[C@H]2[C@@H]3CCC4=CC(=O)C=C[C@]4(C)[C@H]3C(=O)C[C@@]21C`, the T/C (endpoint: mean survival time, dose: 12.5 mg/kg/injection, schedule: Q04DX003 (ip), vehicle: Klucel (hydroxypropylcellulose) (HPC)) is reported as 101 % of control, the T/C (endpoint: mean survival time, dose: 25.0 mg/kg/injection, schedule: Q04DX003 (ip), vehicle: Klucel (hydroxypropylcellulose) (HPC)) is reported as 109 % of control and the T/C (endpoint: mean survival time, dose: 50.0 mg/kg/injection, schedule: Q04DX003 (ip), vehicle: Klucel (hydroxypropylcellulose) (HPC)) is reported as 100 % of control.
In the case of `CC1(C)OC2C(CF)OC(n3cc(Br)c(=O)[nH]c3=O)C2O1` (stereo unspecified), the T/C (endpoint: median survival time, dose: 12.5 mg/kg/injection, schedule: Q01DX005 (ip), vehicle: distilled water + Tween-80) is reported as 98 % of control, the T/C (endpoint: median survival time, dose: 25.0 mg/kg/injection, schedule: Q01DX005 (ip), vehicle: distilled water + Tween-80) is reported as 94 % of control and the T/C (endpoint: median survival time, dose: 50.0 mg/kg/injection, schedule: Q01DX005 (ip), vehicle: distilled water + Tween-80) is reported as 101 % of control. For the same compound, the T/C (endpoint: median survival time, dose: 100.0 mg/kg/injection, schedule: Q01DX005 (ip), vehicle: distilled water + Tween-80) was 103 % of control and the T/C (endpoint: median survival time, dose: 200.0 mg/kg/injection, schedule: Q01DX005 (ip), vehicle: distilled water + Tween-80) was 88 % of control.
With `Cc1ccc(S(=O)(=O)OC2CCSCC2)cc1` the T/C [1] was 102 % of control, the T/C [2] was 94 % of control and the T/C [3] was 94 % of control.
For `Cc1ccc2nc3c(nc2c1)-c1cccc2cccc-3c12`, the T/C [5] was 92 % of control, the T/C [6] was 94 % of control and the T/C (endpoint: mean survival time, dose: 400.0 mg/kg/injection, schedule: Q01DX009 (ip), vehicle: saline with Tween-80) was 106 % of control.
With `CC(C)(CC(=O)O)c1ccccc1` the T/C (endpoint: mean survival time, dose: 100.0 mg/kg/injection, schedule: Q04DX003 (ip), vehicle: saline sonified) was 97 % of control, the T/C (endpoint: mean survival time, dose: 200.0 mg/kg/injection, schedule: Q04DX003 (ip), vehicle: saline sonified) was 101 % of control and the T/C (endpoint: mean survival time, dose: 400.0 mg/kg/injection, schedule: Q04DX003 (ip), vehicle: saline sonified) was 97 % of control.
With `CCN(C(=O)Nc1ccc(OC)cc1)c1ccccc1` the T/C [7] was 98 % of control and the T/C [8] was 95 % of control.
For `O=C(O)c1cccnc1[N+](=O)[O-]`, the T/C [9] was 98 % of control, the T/C (endpoint: mean survival time, dose: 100.0 mg/kg/injection, schedule: Q01DX001 (ip), vehicle: saline with Tween-80) was 93 % of control and the T/C [5] was 94 % of control. For the same compound, the T/C (endpoint: mean survival time, dose: 200.0 mg/kg/injection, schedule: Q01DX001 (ip), vehicle: saline with Tween-80) was 93 % of control and the T/C [6] was 96 % of control.
For `CCOC(=N)CCCl`, the T/C [7] was 106 % of control, the T/C [8] was 101 % of control and the T/C (endpoint: mean survival time, dose: 400.0 mg/kg/injection, schedule: Q04DX003 (ip), vehicle: saline with Tween-80) was 97 % of control.
`CC[N+]1(CC)N=C([O-])N(C)C1=O` was tested, and the T/C [1] was 103 % of control, the T/C [2] was 101 % of control and the T/C [3] was 97 % of control.
With `CCCNC(=O)NO` the T/C (endpoint: mean survival time, dose: 4.0 mg/kg/injection, schedule: Q03HX024 (ip), vehicle: other) was 97 % of control, the T/C (endpoint: mean survival time, dose: 8.0 mg/kg/injection, schedule: Q03HX024 (ip), vehicle: other) was 97 % of control and the T/C (endpoint: mean survival time, dose: 16.0 mg/kg/injection, schedule: Q03HX024 (ip), vehicle: other) was 96 % of control. The T/C (endpoint: mean survival time, dose: 32.0 mg/kg/injection, schedule: Q03HX024 (ip), vehicle: other) was 98 % of control and the T/C (endpoint: mean survival time, dose: 64.0 mg/kg/injection, schedule: Q03HX024 (ip), vehicle: other) was 97 % of control.
For `CC(=O)CSc1ncnc2nc[nH]c12`, the T/C (endpoint: mean survival time, dose: 62.5 mg/kg/injection, schedule: Q01DX015 (ip), vehicle: saline) was 118 % of control, the T/C (endpoint: mean survival time, dose: 250.0 mg/kg/injection, schedule: Q01DX015 (ip), vehicle: saline) was 122 % of control and the T/C (endpoint: mean survival time, dose: 1000.0 mg/kg/injection, schedule: Q01DX015 (ip), vehicle: saline) was 150 % of control.
In the case of `CCCCOC(=O)C(C(=O)OCCCC)(C(=O)OCCCC)C(C(=O)OCCCC)(C(=O)OCCCC)C(=O)OCCCC`, the T/C [1] is reported as 90 % of control and the T/C [3] is reported as 96 % of control.
With `CCC[CH2][Sn]1([CH2]CCC)[O]C2C(CO)OC(n3ccc(N)nc3=O)C2[O]1` (stereo unspecified) the T/C (endpoint: mean survival time, dose: 0.78 mg/kg/injection, schedule: Q01DX009 (ip), vehicle: Klucel (hydroxypropylcellulose) (HPC)) was 116 % of control, the T/C (endpoint: mean survival time, dose: 1.56 mg/kg/injection, schedule: Q01DX005 (ip), vehicle: other) was 104 % of control and the T/C (endpoint: mean survival time, dose: 1.56 mg/kg/injection, schedule: Q01DX009 (ip), vehicle: Klucel (hydroxypropylcellulose) (HPC)) was 113 % of control. For the same compound, the T/C (endpoint: mean survival time, dose: 3.13 mg/kg/injection, schedule: Q01DX005 (ip), vehicle: other) was 104 % of control, the T/C (endpoint: mean survival time, dose: 6.25 mg/kg/injection, schedule: Q01DX005 (ip), vehicle: other) was 113 % of control and the T/C (endpoint: mean survival time, dose: 6.25 mg/kg/injection, schedule: Q01DX009 (ip), vehicle: Klucel (hydroxypropylcellulose) (HPC)) was 115 % of control.
In the case of `CC(C)(CCl)C(=O)O`, the T/C [9] is reported as 110 % of control, the T/C [5] is reported as 104 % of control and the T/C [7] is reported as 100 % of control. The T/C [6] was 93 % of control and the T/C [8] was 104 % of control.
`O=C1C(Br)=C(Br)C(=O)C1(Br)Br` was tested, and the T/C (endpoint: mean survival time, dose: 6.25 mg/kg/injection, schedule: Q01DX009 (ip), vehicle: saline with Tween-80) was 97 % of control, the T/C (endpoint: mean survival time, dose: 12.5 mg/kg/injection, schedule: Q01DX009 (ip), vehicle: saline with Tween-80) was 103 % of control and the T/C (endpoint: mean survival time, dose: 25.0 mg/kg/injection, schedule: Q01DX009 (ip), vehicle: saline with Tween-80) was 92 % of control.
With `Cc1cc(C)c(CC(C)C)c(C)c1` the T/C [1] was 98 % of control, the T/C [2] was 98 % of control and the T/C [3] was 98 % of control.
`CC(=O)OCC1OC(n2ncc3c(NCc4ccco4)ncnc32)C(O)C1O` (stereo unspecified) was tested, and the T/C (endpoint: mean survival time, dose: 25.0 mg/kg/injection, schedule: Q01DX009 (ip), vehicle: water) was 109 % of control, the T/C (endpoint: mean survival time, dose: 50.0 mg/kg/injection, schedule: Q01DX009 (ip), vehicle: water) was 97 % of control and the T/C (endpoint: mean survival time, dose: 100.0 mg/kg/injection, schedule: Q01DX009 (ip), vehicle: water) was 111 % of control. For the same compound, the T/C (endpoint: mean survival time, dose: 200.0 mg/kg/injection, schedule: Q01DX009 (ip), vehicle: water) was 102 % of control and the T/C (endpoint: mean survival time, dose: 400.0 mg/kg/injection, schedule: Q01DX009 (ip), vehicle: water) was 86 % of control.
With `Nc1ccc(S(=O)(=O)c2ccc(N3CCOCC3)c(N)c2)cc1` the T/C (endpoint: mean survival time, dose: 100.0 mg/kg/injection, schedule: Q04DX002 (ip), vehicle: saline with Tween-80) was 105 % of control, the T/C (endpoint: mean survival time, dose: 200.0 mg/kg/injection, schedule: Q04DX002 (ip), vehicle: saline with Tween-80) was 94 % of control and the T/C (endpoint: mean survival time, dose: 400.0 mg/kg/injection, schedule: Q04DX002 (ip), vehicle: saline with Tween-80) was 97 % of control.
With `O=C1C2CC3C1C1(Cl)C(Cl)C4(Cl)C2C3C1(Cl)C4(Cl)Cl` (stereo unspecified) the T/C (endpoint: mean survival time, dose: 9.5 mg/kg/injection, schedule: Q01DX001 (ip), vehicle: other) was 98 % of control, the T/C (endpoint: mean survival time, dose: 19.0 mg/kg/injection, schedule: Q01DX001 (ip), vehicle: other) was 104 % of control and the T/C (endpoint: mean survival time, dose: 38.0 mg/kg/injection, schedule: Q01DX001 (ip), vehicle: other) was 103 % of control. For the same compound, the T/C [4] was 104 % of control.
For `CCCCn1c(Cc2ccccc2)nc2c1C(=O)c1ccccc1C2=O`, the T/C (endpoint: mean survival time, dose: 100.0 mg/kg/injection, schedule: Q04DX003 (ip), vehicle: saline) was 103 % of control, the T/C (endpoint: mean survival time, dose: 200.0 mg/kg/injection, schedule: Q04DX003 (ip), vehicle: saline) was 101 % of control and the T/C (endpoint: mean survival time, dose: 400.0 mg/kg/injection, schedule: Q04DX003 (ip), vehicle: saline) was 98 % of control.
